Results as given in US10907212B2, “Inhibitors of cell adhesion” (Regents of the University of Minnesota, priority 2016, dated 2021).
“Also recorded” adds a separate entry of the source. Where no end group is shown, it is not given here.

What was measured:
[1] = tested on: nectin 4 protein on NIH:OVCAR-5 cells; test: Effect of peptides on anti-Nectin-4 antibody binding to cells as determined by flow cytometry; assay type: cell-based, human; settings: for IgG MFI: IgG control primary antibody; for nectin-4 antibody binding compared to untreated control cells (in words): flow cytometry; for Flow binding: summary table, Nectin-4 antibody binding relative to control = 100
Experimental: Confluent monolayers of cells were detached from 75 cm^2 tissue culture flasks using Accutase cell dissociation buffer (Innovative Cell Technologies, San Diego, Calif.), washed, and labeled with mouse IgG or mAbs against Nectin-4 or Nectin-1 (2.5 μg/10^6 cells) in Flow Buffer [phosphate buffered saline (PBS) containing 2.5% newborn calf serum and 0.02% sodium azide] for 30 min at 4° C.. Cells were washed and incubated with goat anti-mouse IgG F(ab′)2 (Jackson ImmunoResearch, West Grove, Pa.), then washed again and incubated with streptavidin-allophycocyanin conjugate (Jackson ImmunoResearch, West Grove, Pa.) for 30 min each. Cells were washed and fixed in Flow Buffer containing 1% formaldehyde and analyzed in the University of Minnesota Flow Cytometry Resource with a BD Accuri™ C6 flow cytometer (BD Biosciences, San Jose, Calif.) using the Accuri™ software.
Briefly, NIH:OVCAR-5 cells that natively express a moderate amount of nectin 4 protein were incubated for 30 minutes in 150 μg/mL of soluble peptide in DMSO. After incubation, the cells were washed, and then triple antibody stained using mouse anti-nectin 4 (or IgG control) primary antibody, biotinylated goat anti-mouse secondary antibody, and streptavidin APC tertiary antibody. Finally, utilizing the University of Minnesota flow core's Accuri C6 flow cytometer, the relative antibody binding affinity for control and peptide-treated samples was quantitated and compared. Data was collected for each of the 57 peptides generated.

[2] = tested on: ovarian cancer cell aggregation and spheroid formation; test: Spheroid assay for peptides (visual scale +1 to +5); assay type: cell-based, human; settings: for Spheroid-24: 24 hrs, Control = 2; for Spheroid-24 / Spheroid-48: visual scale of +1 to +5; for Spheroid-48: 48 hrs, Control = 4
Experimental: Spheroids were formed from the NIH:OVCAR5 cell lines described above using the liquid overlay method. One milliliter of a single cell suspension was seeded at a concentration of 50,000 cells/ml in OptiMEM® media, into 24-well tissue culture plates coated with 0.5% Seakem agarose (in complete RPMI-1640). Plates were incubated at 37° C. in a humidified incubator with 5% CO2. At various time points up to 5 days, the plates were removed from the incubator and the spheroids were photographed with a Nikon CoolPix digital camera mounted on an Olympus CK2 inverted microscope with a 4× objective. The size of the spheroids was determined using the measure tool in Adobe Photoshop. The largest spheroids were quantified (20-90 spheroids/well), in a minimum of 8 wells, for a total of >300 spheroids per cell type.
The clinical relevance is that by blocking the formation of spheroids, the cells will be more sensitive to chemotherapy (which targets the single cells that proliferate more rapidly than spheroids).
The spheroid assay for peptides 1-30 were scored using a visual scale of +1 to +5. The controls were scored at +2 (24 hrs) and +4 (48 hrs). […] It may be harder to visually assess the size at 24 hours, since the spheroids are relatively small, but and perhaps some of the peptides are affecting cell division, and that is why the spheroids are smaller than the controls at 48 hours, but not 24 hrs (this can be easily assayed with an MTT assay).

[3] = Run Four, 150 μg/mL peptide, 30 minutes, Control 4 = 9,631.58
[4] = Run Four, Control 4 = 9.387504873
[5] = Run Four, antibody binding relative to Control 4 = 100
[6] = Run One, 150 μg/mL peptide, 30 minutes, Control 1 = 15,015
[7] = Run One, 150 μg/mL peptide, 30 minutes, Control 1 = 1,670
[8] = Run One, antibody binding relative to Control 1 = 100.00
[9] = Run Five, 150 μg/mL peptide, 30 minutes, Control 5 = 17,768.90
[10] = Run Five, Control 5 = 2.142155332
[11] = Run Five, antibody binding relative to Control 5 = 100
[12] = Run Three, 150 μg/mL peptide, 30 minutes, Control 3 = 13,070.20
[13] = Run Three, antibody binding relative to Control 3 = 100.00

ACIVNYHMDRFKES-NH2 (listed as Homo sapiens) [Peptide 46]
N4 MFI [1, 3]: 10,569.90
N4 MFI/IgG MFI [1, 4]: 6.623
IgG MFI ([1]; Run Four, Control 4 = 1,026): 1596
nectin-4 antibody binding, percent of control [1, 5]: 104.3

AEASVRGLEDQNLW-NH2 (listed as Homo sapiens) [Peptide 19]
N4 MFI [1, 6]: 7,278
IgG MFI [1, 7]: 2,254
N4 MFI/IgG MFI ([1]; Run One, Control 1 = 8.99): 3.23
nectin-4 antibody binding, percent of control [1, 8]: 37.65
nectin-4 antibody binding compared to untreated control cells (in words) ([1]; 150 μg/mL peptide): reduction in nectin-4 antibody binding; also recorded: reduced antibody binding
Flow binding [1]: 38%
spheroid size (in words) [2]: reduced spheroid size
Spheroid-24 [2]: 1
Spheroid-48 [2]: 2

AWARVDAGEGAQEL-NH2 (listed as Homo sapiens) [Peptide 4]
N4 MFI [1, 6]: 8,687
IgG MFI [1, 7]: 2,199
N4 MFI/IgG MFI ([1]; Run One, Control 1 = 8.99): 3.95
nectin-4 antibody binding, percent of control [1, 8]: 48.62
nectin-4 antibody binding compared to untreated control cells (in words) ([1]; 150 μg/mL peptide): reduction in nectin-4 antibody binding
Flow binding [1]: 49%
Spheroid-24 [2]: 1
Spheroid-48 [2]: 2

CKADANPPATEYHWT-NH2 (listed as Homo sapiens) [Peptide 50]
N4 MFI [1, 3]: 11,341.38
N4 MFI/IgG MFI [1, 4]: 4.306
IgG MFI ([1]; Run Four, Control 4 = 1,026): 2634
nectin-4 antibody binding, percent of control [1, 5]: 101.2

CLSEGQPPPSYNWT-NH2 (listed as Homo sapiens) [Peptide 21]
N4 MFI ([1]; Run Two, 150 μg/mL peptide, 30 minutes, Control 2 = 49,491): 34,351
N4 MFI/IgG MFI ([1]; Run Two, Control 2 = 9.46): 8.61
IgG MFI ([1]; Run Two, Control 2 = 5,233): 3,989
nectin-4 antibody binding, percent of control ([1]; Run Two, antibody binding relative to Control 2 = 100.00): 68.60
Spheroid-24 [2]: 1
Spheroid-48 [2]: 2

EAQNRTLFFKGPINY-NH2 (listed as Homo sapiens) [Peptide 52]
N4 MFI [1, 9]: 20,692.13
N4 MFI/IgG MFI [1, 10]: 2.717
IgG MFI ([1]; Run Five, Control 5 = 8,294.87): 7,617.02
nectin-4 antibody binding, percent of control [1, 11]: 138
nectin-4 antibody binding compared to untreated control cells (in words) ([1]; 150 μg/mL peptide): increased nectin-4 antibody
Flow binding [1]: 138%
Spheroid-24 [2]: 1
Spheroid-48 [2]: 2

ECRVSTFPAGSFQA-NH2 (listed as Homo sapiens) [Peptide 9]
N4 MFI [1, 6]: 8,578
IgG MFI [1, 7]: 1,886
N4 MFI/IgG MFI ([1]; Run One, Control 1 = 8.99): 4.55
nectin-4 antibody binding, percent of control [1, 8]: 50.15
nectin-4 antibody binding compared to untreated control cells (in words) ([1]; 150 μg/mL peptide): reduction in nectin-4 antibody binding
Flow binding [1]: 50%
Spheroid-48 [2]: 3

EGSPAPSVTWDTEV-NH2 (listed as Homo sapiens) [Peptide 13]
N4 MFI [1, 6]: 15,623
IgG MFI [1, 7]: 3,720
N4 MFI/IgG MFI ([1]; Run One, Control 1 = 8.99): 4.20
nectin-4 antibody binding, percent of control [1, 8]: 89.19
Spheroid-24 [2]: 1
Spheroid-48 [2]: 2

ELALLHSKYGLHVS-NH2 (listed as Homo sapiens) [Peptide 5]
N4 MFI [1, 6]: 11,668
IgG MFI [1, 7]: 1,711
N4 MFI/IgG MFI ([1]; Run One, Control 1 = 8.99): 6.82
nectin-4 antibody binding, percent of control [1, 8]: 74.61
Spheroid-48 [2]: 3

ESLTLNVQYEPE-NH2 (listed as Homo sapiens) [Peptide 47]
N4 MFI [1, 3]: 11,949.18
N4 MFI/IgG MFI [1, 4]: 6.679
IgG MFI ([1]; Run Four, Control 4 = 1,026): 1789
nectin-4 antibody binding, percent of control [1, 5]: 118.1
Spheroid-24 [2]: 1
Spheroid-48 [2]: 2

ESQLNLTVMAKPTN-NH2 (listed as Homo sapiens) [Peptide 39]
N4 MFI [1, 12]: 8,719.33
N4 MFI/IgG MFI ([1]; Run Three, Control 3 = 9.83): 4.24
IgG MFI ([1]; Run Three, Control 3 = 1330): 2056
nectin-4 antibody binding, percent of control [1, 13]: 56.76
nectin-4 antibody binding compared to untreated control cells (in words) ([1]; 150 μg/mL peptide): reduction in nectin-4 antibody binding
Flow binding [1]: 57%

GFIGTDVVLHCSFA-NH2 (listed as Homo sapiens) [Peptide 31]
N4 MFI [1, 12]: 15,498.21
N4 MFI/IgG MFI ([1]; Run Three, Control 3 = 9.83): 8.83
IgG MFI ([1]; Run Three, Control 3 = 1330): 1756
nectin-4 antibody binding, percent of control [1, 13]: 117.05
nectin-4 antibody binding compared to untreated control cells (in words) ([1]; 150 μg/mL peptide): increased nectin-4 antibody binding
Flow binding [1]: 117%

GQGLTLAASCTAEG-NH2 (listed as Homo sapiens) [Peptide 12]
N4 MFI [1, 6]: 11,052
IgG MFI [1, 7]: 2,827
N4 MFI/IgG MFI ([1]; Run One, Control 1 = 8.99): 3.91
nectin-4 antibody binding, percent of control [1, 8]: 61.63

LSRLELEDEGVYIC-NH2 (listed as Homo sapiens) [Peptide 37]
N4 MFI [1, 12]: 46,393.69
N4 MFI/IgG MFI ([1]; Run Three, Control 3 = 9.83): 11.38
IgG MFI ([1]; Run Three, Control 3 = 1330): 4078
nectin-4 antibody binding, percent of control [1, 13]: 360.43

NGKPPSVVSWETRL-NH2 (listed as Homo sapiens) [Peptide 42]
N4 MFI [1, 3]: 9,416.50
N4 MFI/IgG MFI [1, 4]: 7.497
IgG MFI ([1]; Run Four, Control 4 = 1,026): 1256
nectin-4 antibody binding, percent of control [1, 5]: 94.83

NVAIYNPSMGVSVL-NH2 (listed as Homo sapiens) [Peptide 34]
N4 MFI [1, 12]: 14,542.93
N4 MFI/IgG MFI ([1]; Run Three, Control 3 = 9.83): 9.77
IgG MFI ([1]; Run Three, Control 3 = 1330): 1489
nectin-4 antibody binding, percent of control [1, 13]: 111.19
nectin-4 antibody binding compared to untreated control cells (in words) ([1]; 150 μg/mL peptide): increased nectin-4 antibody binding
Flow binding [1]: 112%

NYSLAGTYICEATN-NH2 (listed as Homo sapiens) [Peptide 53]
N4 MFI [1, 9]: 40,909.47
N4 MFI/IgG MFI [1, 10]: 1.37
IgG MFI ([1]; Run Five, Control 5 = 8,294.87): 29,864.47
nectin-4 antibody binding, percent of control [1, 11]: 116.6

PAGELETSDVVTVV-NH2 (listed as Homo sapiens) [Peptide 1]
N4 MFI [1, 6]: 2,085
IgG MFI [1, 7]: 1,529
N4 MFI/IgG MFI ([1]; Run One, Control 1 = 8.99): 1.36
nectin-4 antibody binding, percent of control [1, 8]: 4.17
nectin-4 antibody binding compared to untreated control cells (in words) ([1]; 150 μg/mL peptide): reduction in nectin-4 antibody binding

QRITHILHVSFLAE-NH2 (listed as Homo sapiens) [Peptide 18]
Spheroid-24 [2]: 3
Spheroid-48 [2]: 5

TNPIGTRSGQVEVN-NH2 (listed as Homo sapiens) [Peptide 54]
N4 MFI [1, 9]: 19,706.27
N4 MFI/IgG MFI [1, 10]: 2.253
IgG MFI ([1]; Run Five, Control 5 = 8,294.87): 8,747.26
nectin-4 antibody binding, percent of control [1, 11]: 115.7

TNWIEGTQAVLRAKKGQ-NH2 (listed as Homo sapiens) [Peptide 40]
N4 MFI [1, 12]: 10,121.20
N4 MFI/IgG MFI ([1]; Run Three, Control 3 = 9.83): 7.11
IgG MFI ([1]; Run Three, Control 3 = 1330): 1423
nectin-4 antibody binding, percent of control [1, 13]: 74.09

TWQKSTNGSKQNV-NH2 (listed as Homo sapiens) [Peptide 33]
N4 MFI [1, 12]: 10,425.01
N4 MFI/IgG MFI ([1]; Run Three, Control 3 = 9.83): 8.31
IgG MFI ([1]; Run Three, Control 3 = 1330): 1255
nectin-4 antibody binding, percent of control [1, 13]: 78.11

VLAPYRERVEFLRP-NH2 (listed as Homo sapiens) [Peptide 35]
N4 MFI [1, 12]: 15,767.33
N4 MFI/IgG MFI ([1]; Run Three, Control 3 = 9.83): 8.59
IgG MFI ([1]; Run Three, Control 3 = 1330): 1835
nectin-4 antibody binding, percent of control [1, 13]: 118.67
nectin-4 antibody binding compared to untreated control cells (in words) ([1]; 150 μg/mL peptide): increased nectin-4 antibody binding
Flow binding [1]: 119%

VNITEFPYTPSPPEHGRRA-NH2 (listed as Homo sapiens) [Peptide 55]
N4 MFI [1, 9]: 19,498.24
N4 MFI/IgG MFI [1, 10]: 2.29
IgG MFI ([1]; Run Five, Control 5 = 8,294.87): 8,512.75
nectin-4 antibody binding, percent of control [1, 11]: 116

WTTLNGSLPKGVEA-NH2 (listed as Homo sapiens) [Peptide 51]
N4 MFI [1, 9]: 14,202.55
N4 MFI/IgG MFI [1, 10]: 1.539
IgG MFI ([1]; Run Five, Control 5 = 8,294.87): 9,230.44
nectin-4 antibody binding, percent of control [1, 11]: 52.48
nectin-4 antibody binding compared to untreated control cells (in words) ([1]; 150 μg/mL peptide): reduction in nectin-4 antibody binding
Flow binding [1]: 53%
